Laboratory results from patent US7005416B2, “Dalfopristine/quinupristine combinations with cefpirome” (Jones Pharma Incorporated, priority 2000, dated 2006).
Values after ≈ are worked out from the molar mass of the structure shown.

Assays:
[1] = system: MRSA strain AW7 (C-MLSB-resistant); assay: MIC determination on agar plates, MRSA strain AW7; type: cell-based; settings: Staphylococcus aureus, read-out: minimum inhibitory concentration (MIC)
Procedure: (§1) The microorganisms tested were two clinical isolates of C-MLSB-resistant MRSA: strains AW7 and P8, previously characterized in vitro, and in vivo in rat experimental endocarditis.
(§2) The study in vitro and the determination of the MICs (minimum inhibitory concentrations) was carried out using cultures on agar plates (Antimicrob. Agents Chemother., 39, 1419–1424 (1995), the disclosure of which is incorporated by reference herein).

[2] = system: MRSA strain P8 (C-MLSB-resistant); assay: MIC determination on agar plates, MRSA strain P8; type: cell-based; settings: Staphylococcus aureus, read-out: minimum inhibitory concentration (MIC)
Procedure: as §1, §2

MRSA strain AW7 = assay: Growth of bacterial populations on cefpirome-containing plates, with or without subinhibitory dalfopristine/quinupristine, strain AW7; type: cell-based, Staphylococcus aureus
Procedure: as §2
(§3) Bacterial populations of the MRSA strains Ab 7 and P8 can grow on plates containing up to 60 mg/l of cefpirome.

MRSA strain P8 = assay: Growth of bacterial populations on cefpirome-containing plates, with or without subinhibitory dalfopristine/quinupristine, strain P8; type: cell-based, Staphylococcus aureus
Procedure: as §2, §3

in vivo = assay: in vivo; parameters: species or system rats; settings: Wistar, rat, iv
Procedure: The treatment was started 12 hours after the bacterial infection, and was continued for 5 days. The antibiotics were administered by means of a permanent venous catheter with a programmable pump (Pump 44; Harvard Apparatus Inc.) according to the method described in Antimicrobial Agents Chemother., 39, 1419–1424 (1995), the disclosure of which is incorporated by reference herein. The treatments simulated kinetics in humans, which were produced by intravenous administration of 7 mg/kg of quinupristine/dalfopristine every 12 hours, or by intravenous administration of 2 g of cefpirome every 12 hours.
Prior to the treatment experiments, the setting up of the simulation of the human kinetics of the quinupristine/dalfopristine combination with cefpirome in rats was performed on animals that were catheterized, but not infected. In these preliminary experiments, each point of the pharmacokinetics curve is the mean (±standard deviation) of the concentrations measured in 6 different rats. The concentrations of product in the serum were measured in a bioassay (using Micrococcus luteus for quinupristine/dalfopristine, and Bacillus subtilis ATCC 6633 for cefpirome).
These values are in accordance with the therapeutic levels observed in humans for these active principles. […]

[3] = system: C-MLSB-resistant MRSA strains; assay: Rat experimental endocarditis resulting from C-MLSB-resistant MRSA strains (overall statement); type: in vivo, rats; settings: monotherapy
Procedure: Synercid® (quinupristine/dalfopristine) and cefpirome were tested separately in rats, on experimental endocarditis resulting from C-MLSB-resistant MRSA strains.
(§4) For the experimental endocarditis study, Wistar female rats weighing 200 g with aortic vegetation (produced according to the method described by Heraief et al., Infect Immunol., 37,127–31 (1982), the disclosure of which is incorporated by reference herein) were infected with an inoculum of 10^5 CFU/ml of the organism to be tested, which corresponds to 10 times the minimum inoculum to produce endocarditis in at least 90% of the untreated controls (where CFU refers to colony forming units).
(§5) The treatment was started 12 hours after the bacterial infection, and was continued for 5 days. […]
(§6) The control rats were sacrificed at the start of the treatment and the treated rats were sacrificed 24 hours after the final antibiotic administration. The bacterial density in the vegetations was determined after dissecting the vegetations under sterile conditions, weighing, homogenizing in 1 ml of saline solution, and then diluting the solution (series of dilutions) before placing it onto plates for counting of the colonies. The number of colonies growing on the plates was determined after 48 hours of incubation at 35° C. The bacterial densities in the vegetations were expressed as log10 CFU/g of tissue. […]

MRSA AW7 = assay: Rat experimental aortic endocarditis, MRSA AW7; type: in vivo, Wistar female rats
Text: as §4, §5, §6

MRSA P8 = assay: Rat experimental aortic endocarditis, MRSA P8; type: in vivo, Wistar female rats; settings: MRSA P8, 5 days treatment, FIG. 2; monotherapy P>0.05, combination P<0.05
Text: as §4, §5, §6

## CO/N=C(\C(=O)N[C@@H]1C(=O)N2C(C(=O)[O-])=C(C[n+]3cccc4c3CCC4)CS[C@H]12)c1csc(N)n1 [cefpirome]
[1]
  MIC: 4 µg/mL (≈ 7.77 µM)
[2]
  MIC: 2 µg/mL (≈ 3.89 µM)
MRSA strain AW7; MRSA strain AW7 (printed Ab 7), cefpirome alone
  cefpirome concentration in plates up to which bacterial populations can grow: up to 60 mg/l
MRSA strain AW7; MRSA strain AW7, plates with subinhibitory (¼ MIC) dalfopristine/quinupristine combination added
  cefpirome concentration in plates at which the strain did not grow: ≥ 5 mg/L
MRSA strain P8; MRSA strain P8, cefpirome alone
  cefpirome concentration in plates up to which bacterial populations can grow: up to 60 mg/l
MRSA strain P8; MRSA strain P8, plates with subinhibitory (¼ MIC) dalfopristine/quinupristine combination added
  cefpirome concentration in plates at which the strain did not grow: ≥ 15 mg/L
In vivo
  concentration at 5 min: 161 ± 19.7 µg/mL
  concentration at 12 h: 2.2 ± 1.4 µg/mL
[3]
  effectiveness in vivo: Neither Synercid® nor cefpirome showed any effectiveness in vivo in monotherapy
MRSA AW7; MRSA AW7, 5 days treatment, FIG. 2, monotherapy P>0.05, combination P<0.05
  effectiveness on aortic endocarditis (statistical significance): neither quinupristine/dalfopristine, nor cefpirome, in monotherapy were significantly effective
MRSA AW7; MRSA AW7, in 38% of the cases
  log10 CFU/g of vegetation: >8.7 in 38% log10 CFU/g
MRSA P8
  effectiveness on aortic endocarditis (statistical significance): neither quinupristine/dalfopristine, nor cefpirome, in monotherapy were significantly effective
